According to publication PMC11631053, “A receptor-based assay to study the sweet and bitter tastes of sweeteners and binary sweet blends: the SWEET project” (Chemical Senses, 2024):
Several values for one entry are separate records, joined by “and”; a condition that tells them apart may be missing. Equal values may be shown once.

Assays:
TAS2R60 = target: T1, TAS2R60 (Homo sapiens, UniProt P59551); assay: Calcium mobilization assay, HEK293T-Gα16gust44 cells expressing TAS2R60; settings: maximal concentration tested: sucralose 100 mM, neotame 30 µM, Ace-K 300 mM, RebA 4 mM, RebM 4 mM, mogroside V 5 mM, erythritol 200 mM, D-allulose 500 mM, thaumatin 100 mM
T1 sequence (P59551 1-318): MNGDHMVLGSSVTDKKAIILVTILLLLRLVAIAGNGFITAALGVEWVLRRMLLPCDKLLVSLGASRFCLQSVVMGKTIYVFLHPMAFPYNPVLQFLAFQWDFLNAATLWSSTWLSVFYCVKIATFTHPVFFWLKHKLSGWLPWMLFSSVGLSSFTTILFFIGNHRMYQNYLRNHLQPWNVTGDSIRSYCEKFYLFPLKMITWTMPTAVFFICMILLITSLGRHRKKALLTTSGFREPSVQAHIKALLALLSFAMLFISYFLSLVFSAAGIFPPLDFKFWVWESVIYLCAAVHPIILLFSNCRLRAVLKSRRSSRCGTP
Experimental: (§1) Different concentration ranges were tested depending on the injected sweet compound. […] All of the concentration-receptor combinations were measured in triplicate, and each experiment was repeated at least 3 times. The Ca^2+ change was expressed as a fractional change in fluorescent light intensity: ΔF/F = (F − F0)/F0, where F was the fluorescent light intensity at each point, and F0 was the value of fluorescent light emitted prior to stimulus application. To calculate dose–response relationships, the changes in fluorescence upon stimulus application were averaged, mock-subtracted and baseline-corrected. The resulting obtained dose–response data were adjusted by using a 4-parameter logistic equation. The half-maximal effective concentration (EC50) was calculated by using SigmaPlot software (Systat Software, San Jose, CA, USA) as described in supplemental Supplementary Figs. S1, S2, and S3.

TAS2R1 = target: T2, TAS2R1 (Homo sapiens, UniProt Q9NYW7); assay: Calcium mobilization assay, HEK293T-Gα16gust44 cells expressing TAS2R1; settings: for Response of TAS2R1: maximal concentration tested: sucralose 100 mM, neotame 30 µM, Ace-K 300 mM, RebA 4 mM, RebM 4 mM, mogroside V 5 mM, erythritol 200 mM, D-allulose 500 mM, thaumatin 100 mM
T2 sequence (Q9NYW7 1-299): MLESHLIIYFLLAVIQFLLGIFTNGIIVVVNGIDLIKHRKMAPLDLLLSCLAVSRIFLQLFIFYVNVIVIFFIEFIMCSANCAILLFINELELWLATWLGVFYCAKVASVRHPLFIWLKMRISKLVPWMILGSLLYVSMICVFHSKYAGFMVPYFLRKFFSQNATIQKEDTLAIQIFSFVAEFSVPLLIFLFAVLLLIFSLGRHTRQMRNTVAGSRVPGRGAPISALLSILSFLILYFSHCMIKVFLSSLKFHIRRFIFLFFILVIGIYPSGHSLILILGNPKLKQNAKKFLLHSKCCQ
Experimental: (§2) Different concentration ranges were tested depending on the injected sweet compound. […] All of the concentration-receptor combinations were measured in triplicate, and each experiment was repeated at least 3 times. The Ca^2+ change was expressed as a fractional change in fluorescent light intensity: ΔF/F = (F − F0)/F0, where F was the fluorescent light intensity at each point, and F0 was the value of fluorescent light emitted prior to stimulus application. To calculate dose–response relationships, the changes in fluorescence upon stimulus application were averaged, mock-subtracted and baseline-corrected. The resulting obtained dose–response data were adjusted by using a 4-parameter logistic equation.

TAS2R46 = target: T3, TAS2R46 (Homo sapiens, UniProt P59540); assay: Calcium mobilization assay, HEK293T-Gα16gust44 cells expressing TAS2R46; settings: for Response of TAS2R46: maximal concentration tested: sucralose 100 mM, neotame 30 µM, Ace-K 300 mM, RebA 4 mM, RebM 4 mM, mogroside V 5 mM, erythritol 200 mM, D-allulose 500 mM, thaumatin 100 mM
T3 sequence (P59540 1-309): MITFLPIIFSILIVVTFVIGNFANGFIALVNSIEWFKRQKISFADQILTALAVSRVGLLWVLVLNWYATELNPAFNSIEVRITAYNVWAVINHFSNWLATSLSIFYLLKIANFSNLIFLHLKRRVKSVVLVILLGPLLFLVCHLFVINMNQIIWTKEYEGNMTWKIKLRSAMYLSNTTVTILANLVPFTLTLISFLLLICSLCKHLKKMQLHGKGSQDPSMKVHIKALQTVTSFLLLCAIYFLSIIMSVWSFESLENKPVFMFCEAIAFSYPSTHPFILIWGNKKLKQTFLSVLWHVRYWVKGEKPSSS
Experimental: as §2

TAS2R16 = target: T4, TAS2R16 (Homo sapiens, UniProt Q9NYV7); assay: Calcium mobilization assay, HEK293T-Gα16gust44 cells expressing TAS2R16; settings: for Response of TAS2R16: maximal concentration tested: sucralose 100 mM, neotame 30 µM, Ace-K 300 mM, RebA 4 mM, RebM 4 mM, mogroside V 5 mM, erythritol 200 mM, D-allulose 500 mM, thaumatin 100 mM
T4 sequence (Q9NYV7 1-291): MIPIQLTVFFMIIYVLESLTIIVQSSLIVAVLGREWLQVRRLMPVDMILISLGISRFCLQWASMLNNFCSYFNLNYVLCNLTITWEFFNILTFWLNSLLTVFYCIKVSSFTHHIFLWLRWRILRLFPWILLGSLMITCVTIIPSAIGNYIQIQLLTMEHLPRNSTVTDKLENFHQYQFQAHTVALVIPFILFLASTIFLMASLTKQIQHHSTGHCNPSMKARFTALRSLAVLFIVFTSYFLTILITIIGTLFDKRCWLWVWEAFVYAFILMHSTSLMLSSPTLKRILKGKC
Experimental: as §2

TAS2R40 = TAS2R40 (Homo sapiens, UniProt P59535); assay: Calcium mobilization assay, HEK293T-Gα16gust44 cells expressing TAS2R40; settings: maximal concentration tested: sucralose 100 mM, neotame 30 µM, Ace-K 300 mM, RebA 4 mM, RebM 4 mM, mogroside V 5 mM, erythritol 200 mM, D-allulose 500 mM, thaumatin 100 mM
Experimental: as §2

TAS2R39 = target: T5, TAS2R39 (Homo sapiens, UniProt P59534); assay: Calcium mobilization assay, HEK293T-Gα16gust44 cells expressing TAS2R39; settings: maximal concentration tested: sucralose 100 mM, neotame 30 µM, Ace-K 300 mM, RebA 4 mM, RebM 4 mM, mogroside V 5 mM, erythritol 200 mM, D-allulose 500 mM, thaumatin 100 mM
T5 sequence (P59534 1-338): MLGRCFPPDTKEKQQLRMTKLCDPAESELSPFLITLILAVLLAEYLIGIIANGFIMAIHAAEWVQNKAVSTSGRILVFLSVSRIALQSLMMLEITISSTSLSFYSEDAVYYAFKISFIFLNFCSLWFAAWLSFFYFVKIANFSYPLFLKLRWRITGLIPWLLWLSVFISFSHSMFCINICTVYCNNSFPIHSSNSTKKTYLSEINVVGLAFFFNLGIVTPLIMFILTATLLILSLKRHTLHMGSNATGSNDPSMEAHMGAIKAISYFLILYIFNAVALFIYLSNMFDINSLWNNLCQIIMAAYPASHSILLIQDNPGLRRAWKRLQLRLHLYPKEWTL
Experimental: as §2

TAS2R45 = target: T6, TAS2R45 (Homo sapiens, UniProt P59539); assay: Calcium mobilization assay, HEK293T-Gα16gust44 cells expressing TAS2R45; settings: maximal concentration tested: sucralose 100 mM, neotame 30 µM, Ace-K 300 mM, RebA 4 mM, RebM 4 mM, mogroside V 5 mM, erythritol 200 mM, D-allulose 500 mM, thaumatin 100 mM
T6 sequence (P59539 1-299): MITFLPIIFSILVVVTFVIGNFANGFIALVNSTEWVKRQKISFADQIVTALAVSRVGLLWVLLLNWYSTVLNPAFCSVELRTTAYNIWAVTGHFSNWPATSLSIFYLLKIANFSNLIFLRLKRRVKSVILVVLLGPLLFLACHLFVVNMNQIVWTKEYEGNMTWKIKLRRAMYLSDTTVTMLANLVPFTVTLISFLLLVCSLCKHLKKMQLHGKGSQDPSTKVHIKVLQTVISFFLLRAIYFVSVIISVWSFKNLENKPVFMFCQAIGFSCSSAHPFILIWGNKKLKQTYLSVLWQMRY
Experimental: as §1

TAS2R7 = target: T7, TAS2R7 (Homo sapiens, UniProt Q9NYW3); assay: Calcium mobilization assay, HEK293T-Gα16gust44 cells expressing TAS2R7; settings: maximal concentration tested: sucralose 100 mM, neotame 30 µM, Ace-K 300 mM, RebA 4 mM, RebM 4 mM, mogroside V 5 mM, erythritol 200 mM, D-allulose 500 mM, thaumatin 100 mM
T7 sequence (Q9NYW3 1-318): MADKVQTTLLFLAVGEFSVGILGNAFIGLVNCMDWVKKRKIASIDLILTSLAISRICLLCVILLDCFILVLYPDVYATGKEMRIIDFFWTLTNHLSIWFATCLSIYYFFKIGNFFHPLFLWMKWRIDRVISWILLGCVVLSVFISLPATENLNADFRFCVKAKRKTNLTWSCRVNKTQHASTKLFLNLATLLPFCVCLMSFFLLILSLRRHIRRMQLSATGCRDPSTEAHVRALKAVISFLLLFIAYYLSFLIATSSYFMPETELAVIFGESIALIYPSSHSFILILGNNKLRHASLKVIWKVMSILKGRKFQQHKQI
Experimental: as §1

Chain of TAS2R40 (P59535 whole entry): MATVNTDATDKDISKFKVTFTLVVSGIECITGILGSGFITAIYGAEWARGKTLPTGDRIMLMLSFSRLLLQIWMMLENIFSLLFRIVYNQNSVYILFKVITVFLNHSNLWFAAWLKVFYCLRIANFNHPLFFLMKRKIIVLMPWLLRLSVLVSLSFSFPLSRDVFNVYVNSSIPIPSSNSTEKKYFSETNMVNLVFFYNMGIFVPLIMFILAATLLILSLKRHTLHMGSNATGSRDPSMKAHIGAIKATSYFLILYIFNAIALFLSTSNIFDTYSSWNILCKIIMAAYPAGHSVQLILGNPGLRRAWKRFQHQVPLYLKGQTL

Row | Compound | Response of TAS2R60 (TAS2R60) | Response of TAS2R1 (TAS2R1) | Response of TAS2R46 (TAS2R46) | Response of TAS2R16 (TAS2R16) | EC50 (TAS2R16; read-out: TAS2R16 EC50) [mM] | Response of TAS2R40 (TAS2R40) | Response of TAS2R39 (TAS2R39) | Response of TAS2R45 (TAS2R45) | Response of TAS2R7 (TAS2R7) | concentrations at which TAS2R16 was activated (TAS2R16) [mM] | EC50 (TAS2R1; TAS2R1 EC50) [mM] | EC50 (TAS2R46; TAS2R46 EC50)
1 | C[C@H](CC[C@@H](O[C@@H]1O[C@H](CO[C@@H]2O[C@H](CO)[C@@H](O)[C@H](O)[C@H]2O)[C@@H](O)[C@H](O)[C@H]1O[C@@H]1O[C@H](CO)[C@@H](O)[C@H](O)[C@H]1O)C(C)(C)O)[C@H]1CC[C@@]2(C)[C@@H]3CC=C4[C@@H](CC[C@H](O[C@@H]5O[C@H](CO[C@@H]6O[C@H](CO)[C@@H](O)[C@H](O)[C@H]6O)[C@@H](O)[C@H](O)[C@H]5O)C4(C)C)[C@]3(C)[C@H](O)C[C@]12C [Mogroside V, mogroside V] | − | − | − | + | 1.18 ± 0.44 | − | − | − | − |  |  | 
2 | CC1=CC(=O)NS(=O)(=O)O1 [Ace-K, acesulfame-K] | − | − | − | − |  | − | − | − | − |  |  | 
3 | COC(=O)[C@H](Cc1ccccc1)NC(=O)[C@H](CC(=O)O)NCCC(C)(C)C [Neotame] | − | − | − | − |  | − | − | − | − |  |  | 
4 | O=C(CO)[C@H](O)[C@H](O)[C@H](O)CO [D-allulose] | − | − | − | + |  | − | − | − | − | > 300 |  | 
5 | OC[C@H]1O[C@H](O[C@]2(CCl)O[C@H](CCl)[C@@H](O)[C@@H]2O)[C@H](O)[C@@H](O)[C@H]1Cl [Sucralose, sucralose] | − | #^a | #^a | − |  | − | − | − | − |  | > 100 | 3 mM and ≥ 3 mM
6 | thaumatin | − | − | − | − |  | − | − | − | − |  |  | 
7 | OC[C@@H](O)[C@@H](O)CO [Erythritol, erythritol] | − | − | − | − |  | − | − | − | − |  |  | 
8 | C=C1C[C@@]23CC[C@H]4[C@@](C)(CCC[C@@]4(C)C(=O)O[C@@H]4O[C@H](CO)[C@@H](O)[C@H](O[C@@H]5O[C@H](CO)[C@@H](O)[C@H](O)[C@H]5O)[C@H]4O[C@@H]4O[C@H](CO)[C@@H](O)[C@H](O)[C@H]4O)[C@@H]2CC[C@]1(O[C@@H]1O[C@H](CO)[C@@H](O)[C@H](O[C@@H]2O[C@H](CO)[C@@H](O)[C@H](O)[C@H]2O)[C@H]1O[C@@H]1O[C@H](CO)[C@@H](O)[C@H](O)[C@H]1O)C3 [RebM, Rebaudioside M] | − | − | − | − |  | − | − | − | − |  |  | 
